Assay results reported in US20020137929A1, “1 - (3-heterocyclylphenyl) isothiourea, -isourea, -guanidine and -amidine herbicidal agents” (Intellectual Property Department, BASF Aktiengesellschaft, priority 1998, published 2002).

Legend:
AMBEL (Ragweed, Common) = test: Preemergence herbicidal evaluation; format: in vivo, Ambrosia artemisifolia; conditions: rated 4-5 weeks after treatment
Outline: (§1)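 Visual 0-9 rating vs control (stand, vigor, malformation, size, chlorosis, overall appearance), scored 4-5 wk after spraying. Seeded soil cups were treated preemergence with compound in aqueous acetone, ~0.0156-0.500 kg/ha equivalent.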

[1] = test system: GLXMAW (Soybean, Williams); test: Postemergence herbicidal evaluation; format: in vivo, Glycine max, (L.) Merr. cv Williams; conditions: postemergence
Outline: (§2)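 Each compound, dispersed in an acetone/water mix (50/50) carrying 0.5% TWEEN 20, is nozzle-sprayed at 40 psi on approximately two-week-old seedlings at about 0.0156–0.500 kg/ha. Plants are assessed 4–5 weeks afterward on a 0–9 scale relative to control; duplicate tests are averaged.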

CASOB (Sicklepod) = test: Preemergence herbicidal evaluation; format: in vivo, Cassia obtusifolia; conditions: rated 4-5 weeks after treatment
Outline: as §1

CYPSE (Flatsedge) = test: Preemergence weed control under flooded paddy conditions; format: in vivo, Cyperus serotinus; conditions: rated 3-4 weeks after treatment
Outline: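 Silt loam, seeds in top 0.5 cm; flood held 1.5-3 cm; test cpd as acetone/water 50/50 into flood water, ~0.0313-0.500 kg/ha a.i.; greenhouse 3-4 wk; visual 0-9 score vs control.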

ZEAMX (Corn, Field) = test: Postemergence herbicidal evaluation; format: in vivo, Zea mays; conditions: postemergence
Outline: as §2

ECHCG (Barnyardgrass) = test: Preemergence herbicidal evaluation; format: in vivo, Echinochloa crus-galli; conditions: rated 4-5 weeks after treatment
Outline: as §1

[2] = test system: ECHORC (Watergrass (Calif.)); test: Preemergence weed control under flooded paddy conditions; format: in vivo, Echinochloa oryzoides; conditions: rated 3-4 weeks after treatment
Outline: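 Herbicidal effect is scored visually on a 0-9 scale against an untreated control, three to four weeks after compounds are pipetted into the flood water (1.5 to 3 cm deep) over seeds planted in silt loam at 0.5 cm depth. Rates: about 0.0313 to 0.500 kg/ha.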

[3] = test system: IPOHE (Morningglory, Ivyleaf); test: Postemergence herbicidal evaluation; format: in vivo, Ipomoea hederacea; conditions: postemergence
Outline: as §2

SETVI (Foxtail, Green) = test: Postemergence herbicidal evaluation; format: in vivo, Setaria viridis; conditions: postemergence
Outline: as §2

ABUTH (Velvetleaf) [4] = test: Postemergence herbicidal evaluation; format: in vivo, Abutilon theophrasti; conditions: postemergence
Outline: as §2

[5] = test system: IPOHE (Morningglory, Ivyleaf); test: Preemergence herbicidal evaluation; format: in vivo, Ipomoea hederacea; conditions: rated 4-5 weeks after treatment
Outline: as §1

ABUTH (Velvetleaf) [6] = test: Preemergence herbicidal evaluation; format: in vivo, Abutilon theophrasti; conditions: rated 4-5 weeks after treatment
Outline: as §1

[7] = rate 0.1250 kg/ha, rating scale 0-9
[8] = rate 0.2500 kg/ha, rating scale 0-9

Q: Which “Preemergence herbicidal rating AMBEL” value (AMBEL (Ragweed, Common); 0.0156 kg/ha) does the source give for `COC(=O)CSCCN1C(=O)CSC1=Nc1cc(-n2c(=O)cc(C(F)(F)F)n(C)c2=O)c(F)cc1Cl` [Compound 158, Methyl {{2-{2-{{2-chloro-5-[3,6-dihydro-3-methyl-2,6-dioxo-4-(trifluoromethyl)-1(2H)-pyrimidinyl]-4-fluorophenyl}imino}-4-oxo-3-thiazolidinyl}ethyl}-thio}acetate] here?
A: 1.0

Q: And the “Preemergence herbicidal rating AMBEL” value (AMBEL (Ragweed, Common); 0.0313 kg/ha)?
A: 3.0

Q: And the “Preemergence herbicidal rating AMBEL” value (AMBEL (Ragweed, Common); 0.0625 kg/ha)?
A: 7.0

Q: And the “Preemergence herbicidal rating AMBEL” value (AMBEL (Ragweed, Common); [7])?
A: 9.0

Q: What about the “Preemergence herbicidal rating AMBEL” value (AMBEL (Ragweed, Common); [8]) of the same compound?
A: 9.0

Q: And the “herbicidal rating GLXMAW” value ([1]; rate 0.0156 kg/ha)?
A: 5.0

Q: And the “herbicidal rating GLXMAW” value ([1]; rate 0.0313 kg/ha)?
A: 5.0

Q: And the “herbicidal rating GLXMAW” value ([1]; rate 0.0625 kg/ha)?
A: 7.0

Q: What about the “Preemergence herbicidal rating CASOB” value (CASOB (Sicklepod); 0.0156 kg/ha) of the same compound?
A: 1.0

Q: What about the “Preemergence herbicidal rating CASOB” value (CASOB (Sicklepod); 0.0313 kg/ha) of the same compound?
A: 3.0

Q: What about the “Preemergence herbicidal rating CASOB” value (CASOB (Sicklepod); 0.0625 kg/ha) of the same compound?
A: 4.0

Q: What about the “Preemergence herbicidal rating CASOB” value (CASOB (Sicklepod); [7]) of the same compound?
A: 9.0

Q: And the “Preemergence herbicidal rating CASOB” value (CASOB (Sicklepod); [8])?
A: 5.0

Q: What about the “herbicidal effect rating, CYPSE” value (CYPSE (Flatsedge); 0.0313 kg/ha) of the same compound?
A: 5.0

Q: And the “herbicidal effect rating, CYPSE” value (CYPSE (Flatsedge); 0.0625 kg/ha)?
A: 9.0

Q: What about the “herbicidal effect rating, CYPSE” value (CYPSE (Flatsedge); 0.1250 kg/ha) of the same compound?
A: 9.0

Q: And the “herbicidal effect rating, CYPSE” value (CYPSE (Flatsedge); 0.2500 kg/ha)?
A: 9.0

Q: And the “herbicidal rating ZEAMX” value (ZEAMX (Corn, Field); rate 0.0156 kg/ha)?
A: 4.0

Q: And the “herbicidal rating ZEAMX” value (ZEAMX (Corn, Field); rate 0.0313 kg/ha)?
A: 4.5

Q: What about the “herbicidal rating ZEAMX” value (ZEAMX (Corn, Field); rate 0.0625 kg/ha) of the same compound?
A: 5.5

Q: And the “Preemergence herbicidal rating ECHCG” value (ECHCG (Barnyardgrass); 0.0156 kg/ha)?
A: 2.0

Q: And the “Preemergence herbicidal rating ECHCG” value (ECHCG (Barnyardgrass); 0.0313 kg/ha)?
A: 7.0

Q: What about the “Preemergence herbicidal rating ECHCG” value (ECHCG (Barnyardgrass); 0.0625 kg/ha) of the same compound?
A: 9.0

Q: And the “Preemergence herbicidal rating ECHCG” value (ECHCG (Barnyardgrass); [7])?
A: 9.0

Q: And the “Preemergence herbicidal rating ECHCG” value (ECHCG (Barnyardgrass); [8])?
A: 9.0

Q: And the “herbicidal effect rating, ECHORC” value ([2]; 0.0313 kg/ha)?
A: 9.0

Q: And the “herbicidal effect rating, ECHORC” value ([2]; 0.0625 kg/ha)?
A: 9.0

Q: And the “herbicidal effect rating, ECHORC” value ([2]; 0.1250 kg/ha)?
A: 9.0

Q: And the “herbicidal effect rating, ECHORC” value ([2]; 0.2500 kg/ha)?
A: 9.0

Q: And the “herbicidal rating IPOHE” value ([3]; rate 0.0156 kg/ha)?
A: 9.0

Q: And the “herbicidal rating IPOHE” value ([3]; rate 0.0313 kg/ha)?
A: 9.0

Q: What about the “herbicidal rating IPOHE” value ([3]; rate 0.0625 kg/ha) of the same compound?
A: 9.0

Q: What about the “herbicidal rating SETVI” value (SETVI (Foxtail, Green); rate 0.0156 kg/ha) of the same compound?
A: 2.0

Q: What about the “herbicidal rating SETVI” value (SETVI (Foxtail, Green); rate 0.0313 kg/ha) of the same compound?
A: 3.0

Q: And the “herbicidal rating SETVI” value (SETVI (Foxtail, Green); rate 0.0625 kg/ha)?
A: 9.0

Q: And the “herbicidal rating ABUTH” value (ABUTH (Velvetleaf) [4]; rate 0.0156 kg/ha)?
A: 9.0

Q: And the “herbicidal rating ABUTH” value (ABUTH (Velvetleaf) [4]; rate 0.0313 kg/ha)?
A: 9.0

Q: What about the “herbicidal rating ABUTH” value (ABUTH (Velvetleaf) [4]; rate 0.0625 kg/ha) of the same compound?
A: 9.0

Q: What about the “Preemergence herbicidal rating IPOHE” value ([5]; 0.0156 kg/ha) of the same compound?
A: 1.0

Q: And the “Preemergence herbicidal rating IPOHE” value ([5]; 0.0313 kg/ha)?
A: 4.0

Q: What about the “Preemergence herbicidal rating IPOHE” value ([5]; 0.0625 kg/ha) of the same compound?
A: 7.0

Q: And the “Preemergence herbicidal rating IPOHE” value [5, 7]?
A: 9.0

Q: What about the “Preemergence herbicidal rating IPOHE” value [5, 8] of the same compound?
A: 9.0

Q: What about the “Preemergence herbicidal rating ABUTH” value (ABUTH (Velvetleaf) [6]; 0.0156 kg/ha) of the same compound?
A: 9.0

Q: And the “Preemergence herbicidal rating ABUTH” value (ABUTH (Velvetleaf) [6]; 0.0313 kg/ha)?
A: 9.0

Q: And the “Preemergence herbicidal rating ABUTH” value (ABUTH (Velvetleaf) [6]; 0.0625 kg/ha)?
A: 9.0

Q: And the “Preemergence herbicidal rating ABUTH” value (ABUTH (Velvetleaf) [6]; [7])?
A: 9.0

Q: And the “Preemergence herbicidal rating ABUTH” value (ABUTH (Velvetleaf) [6]; [8])?
A: 9.0
